From US7880007B2, “Bicyclic substituted phenyl piperidine modulators of muscarinic receptors” (Vertex Pharmaceuticals Incorporated, priority 2004, dated 2011) come the findings set out here.

Common to all, as to type: cell-based
One assay concerns the target T1, M1 muscarinic receptor (Homo sapiens, UniProt P11229).
T1 construct: expressed in transfected cells; host or cells: CHO (M1-CHO)
T1 sequence (P11229 1-460): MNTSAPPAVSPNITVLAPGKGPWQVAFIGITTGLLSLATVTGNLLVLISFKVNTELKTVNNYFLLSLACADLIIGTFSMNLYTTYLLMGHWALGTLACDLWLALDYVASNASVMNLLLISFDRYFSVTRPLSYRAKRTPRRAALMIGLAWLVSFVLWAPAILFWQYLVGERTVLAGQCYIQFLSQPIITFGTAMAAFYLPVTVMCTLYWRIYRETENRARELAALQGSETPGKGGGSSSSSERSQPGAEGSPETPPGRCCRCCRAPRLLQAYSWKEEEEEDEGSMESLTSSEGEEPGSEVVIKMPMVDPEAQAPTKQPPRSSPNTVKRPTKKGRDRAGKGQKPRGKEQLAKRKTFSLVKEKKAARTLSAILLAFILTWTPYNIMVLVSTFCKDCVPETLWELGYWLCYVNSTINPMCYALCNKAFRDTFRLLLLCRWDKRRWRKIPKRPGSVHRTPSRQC
The assay can be described thus: Functional mobilization of intracellular calcium (FLIPR), M1-CHO cells. To be noted: for Emax: 100% efficacy is the maximum response obtained with the Carbachol control; for M1 Activity: M1-CHO cells, calcium mobilization (FLIPR). Put shortly:
(§1)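 Calcium mobilisation read by FLIPR over 60 s (ex 488/em 540 nm) in recombinant muscarinic CHO lines loaded with calcium dye plus 1 mM probenecid. Compounds tested as agonists alone, or as inhibitors against EC80 carbachol after 15 min pre-incubation or co-addition; 0.5% DMSO; efficacy scaled to carbachol maximal response.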
For orientation: A change in cytosolic calcium serves as a functional read-out for many receptors and channels.

In another assay the target is T2, M2 muscarinic receptor (Homo sapiens, UniProt P08172).
T2 construct: expressed in transfected cells; host or cells: CHO (M2-CHO)
T2 sequence (P08172 1-466): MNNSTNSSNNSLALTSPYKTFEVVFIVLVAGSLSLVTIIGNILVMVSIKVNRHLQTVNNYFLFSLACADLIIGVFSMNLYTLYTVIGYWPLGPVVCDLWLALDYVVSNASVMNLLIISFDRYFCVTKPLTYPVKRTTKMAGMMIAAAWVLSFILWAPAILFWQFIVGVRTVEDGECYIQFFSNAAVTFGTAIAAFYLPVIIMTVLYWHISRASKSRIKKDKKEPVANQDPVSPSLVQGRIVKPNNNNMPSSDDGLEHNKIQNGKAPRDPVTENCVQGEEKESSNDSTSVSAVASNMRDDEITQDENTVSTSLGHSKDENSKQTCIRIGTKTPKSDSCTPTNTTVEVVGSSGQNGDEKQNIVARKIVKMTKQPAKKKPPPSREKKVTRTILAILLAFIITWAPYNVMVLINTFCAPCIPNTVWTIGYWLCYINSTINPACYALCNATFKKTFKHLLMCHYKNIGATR
The assay can be described thus: Functional mobilization of intracellular calcium (FLIPR), M2-CHO cells. The conditions noted are these: for Emax: 100% efficacy is the maximum response obtained with the Carbachol control; for M2 Activity: M2-CHO cells, calcium mobilization (FLIPR). Put shortly:
as §1

In the next assay the target is T3, M3 muscarinic receptor (Homo sapiens, UniProt P20309).
T3 construct: expressed in transfected cells; host or cells: CHO (M3-CHO)
T3 sequence (P20309 whole entry): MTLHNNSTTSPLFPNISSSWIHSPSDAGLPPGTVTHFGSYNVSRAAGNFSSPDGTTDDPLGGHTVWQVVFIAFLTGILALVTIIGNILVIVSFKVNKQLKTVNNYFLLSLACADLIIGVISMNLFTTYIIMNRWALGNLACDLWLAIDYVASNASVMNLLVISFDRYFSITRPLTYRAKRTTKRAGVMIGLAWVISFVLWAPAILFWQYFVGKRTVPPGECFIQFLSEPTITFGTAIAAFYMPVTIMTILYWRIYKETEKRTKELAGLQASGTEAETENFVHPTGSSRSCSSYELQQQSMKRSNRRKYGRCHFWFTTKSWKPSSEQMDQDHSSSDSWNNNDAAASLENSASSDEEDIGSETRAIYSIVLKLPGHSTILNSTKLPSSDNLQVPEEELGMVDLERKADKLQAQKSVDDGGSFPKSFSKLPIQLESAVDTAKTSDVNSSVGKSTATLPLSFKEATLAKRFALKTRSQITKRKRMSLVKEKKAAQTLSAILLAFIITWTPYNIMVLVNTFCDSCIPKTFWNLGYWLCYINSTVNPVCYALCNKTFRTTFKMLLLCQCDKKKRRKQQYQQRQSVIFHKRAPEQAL
The experiment in a line: Functional mobilization of intracellular calcium (FLIPR), M3-CHO cells. The conditions noted are these: for Emax: 100% efficacy is the maximum response obtained with the Carbachol control; for M3 Activity: M3-CHO cells, calcium mobilization (FLIPR). Put shortly:
as §1

For the next assay, the target named is T4, M4 muscarinic receptor (Homo sapiens, UniProt P08173).
T4 construct: expressed in transfected cells; host or cells: CHO (M4-CHO)
T4 sequence (P08173 1-479): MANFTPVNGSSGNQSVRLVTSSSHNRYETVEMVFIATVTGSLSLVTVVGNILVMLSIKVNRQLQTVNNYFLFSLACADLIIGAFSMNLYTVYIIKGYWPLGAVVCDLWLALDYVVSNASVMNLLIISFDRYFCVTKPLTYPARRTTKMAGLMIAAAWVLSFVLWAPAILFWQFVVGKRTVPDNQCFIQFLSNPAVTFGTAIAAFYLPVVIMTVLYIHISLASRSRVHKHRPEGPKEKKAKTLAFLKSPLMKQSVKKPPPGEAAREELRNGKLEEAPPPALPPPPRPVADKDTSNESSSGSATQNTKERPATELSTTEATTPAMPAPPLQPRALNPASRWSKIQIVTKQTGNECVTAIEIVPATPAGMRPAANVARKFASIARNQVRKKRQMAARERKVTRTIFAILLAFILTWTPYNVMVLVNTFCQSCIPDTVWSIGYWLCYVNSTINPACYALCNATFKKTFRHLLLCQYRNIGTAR
The assay can be described thus: Functional mobilization of intracellular calcium (FLIPR), M4-CHO cells. The conditions noted are these: for Emax: 100% efficacy is the maximum response obtained with the Carbachol control; for M4 Activity: M4-CHO cells, calcium mobilization (FLIPR). Summed up:
as §1

In general, Emax refers to the maximal effect, on the per cent scale that the assay sets.

Some results are limits rather than exact numbers.

In the case of `C=Cc1ccc(OC)c(C2CCN([C@@H]3C[C@H]4CC[C@H]3C4)CC2)c1` [Compound 404], on M1 muscarinic receptor, the Emax fell in the range of 25 to 100% and the “M1 Activity” value is “++ (activity was measured to be from 1.0 μM to 5.0 μM)”. Moreover, at M2 muscarinic receptor, the Emax is below 25% and the “M2 Activity” value was “+ (activity was measured to be greater than 5.0 μM)”. Moreover, at M3 muscarinic receptor, the Emax is below 25% and the “M3 Activity” value is “+ (activity was measured to be greater than 5.0 μM)”. For the same molecule, on M4 muscarinic receptor, the Emax lay within 25 to 100% and the “M4 Activity” value is “+++ (activity was measured to be less than 1.0 μM)”.

For `CCOC(=O)N1CCC(CN2CCC(c3ccccc3C(F)(F)F)CC2)CC1` [Compound 405], on M1 muscarinic receptor, the Emax was in the range of 25 to 100% and the “M1 Activity” value is recorded as “+++ (activity was measured to be less than 1.0 μM)”. Besides, at M2 muscarinic receptor, the Emax was in the range of 25 to 100% and the “M2 Activity” value was “++ (activity was measured to be from 1.0 μM to 5.0 μM)”. Besides, at M3 muscarinic receptor, the Emax was below 25% and the “M3 Activity” value is listed as “+ (activity was measured to be greater than 5.0 μM)”. For the same molecule, on M4 muscarinic receptor, the Emax is above 100% and the “M4 Activity” value is recorded as “+++ (activity was measured to be less than 1.0 μM)”.

Take `CCOC(=O)N1C2CCC1CC(N1CCC(c3cc(Cl)ccc3OC)CC1)C2` (stereo not drawn) [Compound 406]: on M1 muscarinic receptor, the Emax lay within 25 to 100% and the “M1 Activity” value is given as “+++ (activity was measured to be less than 1.0 μM)”. Moreover, at M2 muscarinic receptor, the Emax was in the range of 25 to 100% and the “M2 Activity” value was “+++ (activity was measured to be less than 1.0 μM)”. In addition, on M3 muscarinic receptor, the Emax lay within 25 to 100% and the “M3 Activity” value is “+ (activity was measured to be greater than 5.0 μM)”. Moreover, on M4 muscarinic receptor, the Emax lay in the range of 25 to 100% and the “M4 Activity” value is “+++ (activity was measured to be less than 1.0 μM)”.

In the case of `COc1ccc(-c2ccc(C(N)=O)cc2)cc1C1CCN([C@H]2C[C@H]3CC[C@H]2C3)CC1` [Compound 407], on M1 muscarinic receptor, the Emax is below 25% and the “M1 Activity” value is reported as “+ (activity was measured to be greater than 5.0 μM)”. On M2 muscarinic receptor, the Emax is below 25% and the “M2 Activity” value is recorded as “+ (activity was measured to be greater than 5.0 μM)”. In addition, at M3 muscarinic receptor, the Emax is below 25% and the “M3 Activity” value was “+ (activity was measured to be greater than 5.0 μM)”. Further, at M4 muscarinic receptor, the Emax was in the range of 25 to 100% and the “M4 Activity” value is “+++ (activity was measured to be less than 1.0 μM)”.

`COc1ccccc1C1CCN(C2C3CC4CC(C3)CC2C4)CC1` (stereo not drawn) [Compound 408]: at M1 muscarinic receptor, the Emax is 25 to 100% and the “M1 Activity” value is listed as “+ (activity was measured to be greater than 5.0 μM)”. Besides, on M2 muscarinic receptor, the Emax is below 25% and the “M2 Activity” value is on record as “+ (activity was measured to be greater than 5.0 μM)”. Besides, at M3 muscarinic receptor, the Emax is below 25% and the “M3 Activity” value is “+ (activity was measured to be greater than 5.0 μM)”. Moreover, at M4 muscarinic receptor, the Emax lay within 25 to 100% and the “M4 Activity” value is listed as “+++ (activity was measured to be less than 1.0 μM)”.

For `COc1ccc(Cl)cc1C1(F)CCN(C2CCCCC2)CC1` [Compound 409], on M1 muscarinic receptor, the Emax lay in the range of 25 to 100% and the “M1 Activity” value is “+ (activity was measured to be greater than 5.0 μM)”. Moreover, at M2 muscarinic receptor, the Emax lay in the range of 25 to 100% and the “M2 Activity” value is “+ (activity was measured to be greater than 5.0 μM)”. Also, on M3 muscarinic receptor, the Emax was below 25% and the “M3 Activity” value was “+ (activity was measured to be greater than 5.0 μM)”. Also, at M4 muscarinic receptor, the Emax lay in the range of 25 to 100% and the “M4 Activity” value is listed as “++ (activity was measured to be from 1.0 μM to 5.0 μM)”.

Turning to `COc1ccccc1C1CCN(C2CCC(OC(=O)c3ccccc3)CC2)CC1` (stereo not drawn) [Compound 410], on M1 muscarinic receptor, the Emax is below 25% and the “M1 Activity” value is listed as “+ (activity was measured to be greater than 5.0 μM)”. On M2 muscarinic receptor, the Emax was below 25% and the “M2 Activity” value is recorded as “+ (activity was measured to be greater than 5.0 μM)”. For the same molecule, at M3 muscarinic receptor, the Emax is below 25% and the “M3 Activity” value is given as “+ (activity was measured to be greater than 5.0 μM)”. At M4 muscarinic receptor, the Emax was 25 to 100% and the “M4 Activity” value was “++ (activity was measured to be from 1.0 μM to 5.0 μM)”.

On to `CCOC(=O)N1CCC(CN2CCC(c3cc(-c4ccc(S(=O)(=O)N5CCCC5)cc4)ccc3OC)CC2)CC1` [Compound 411], for which, at M1 muscarinic receptor, the Emax lay in the range of 25 to 100% and the “M1 Activity” value is “+++ (activity was measured to be less than 1.0 μM)”. Moreover, on M2 muscarinic receptor, the Emax is below 25% and the “M2 Activity” value is given as “+ (activity was measured to be greater than 5.0 μM)”. In addition, at M3 muscarinic receptor, the Emax is below 25% and the “M3 Activity” value is on record as “+ (activity was measured to be greater than 5.0 μM)”. At M4 muscarinic receptor, the Emax is below 25% and the “M4 Activity” value is listed as “+++ (activity was measured to be less than 1.0 μM)”.

Turning to `COc1ccc(-c2ccsc2)cc1C1CCN([C@@H]2C[C@H]3CC[C@H]2C3)CC1` [Compound 414], on M1 muscarinic receptor, the Emax was below 25% and the “M1 Activity” value is reported as “+ (activity was measured to be greater than 5.0 μM)”. On M2 muscarinic receptor, the Emax is below 25% and the “M2 Activity” value is “+ (activity was measured to be greater than 5.0 μM)”. Further, at M3 muscarinic receptor, the Emax is below 25% and the “M3 Activity” value was “+ (activity was measured to be greater than 5.0 μM)”. On M4 muscarinic receptor, the Emax lay in the range of 25 to 100% and the “M4 Activity” value is “++ (activity was measured to be from 1.0 μM to 5.0 μM)”.

On to `N#Cc1ccc(C2CCN(C3CCOCC3)CC2)cc1` [Compound 415], for which, on M1 muscarinic receptor, the Emax is below 25% and the “M1 Activity” value is “+ (activity was measured to be greater than 5.0 μM)”. In addition, on M2 muscarinic receptor, the Emax is below 25% and the “M2 Activity” value was “+ (activity was measured to be greater than 5.0 μM)”. On M3 muscarinic receptor, the Emax was below 25% and the “M3 Activity” value is “+ (activity was measured to be greater than 5.0 μM)”. Moreover, at M4 muscarinic receptor, the Emax was in the range of 25 to 100% and the “M4 Activity” value is reported as “+ (activity was measured to be greater than 5.0 μM)”.

Turning to `COc1ccc(C(=O)c2ccoc2)cc1C1CCN([C@@H]2C[C@H]3CC[C@H]2C3)CC1` [Compound 416], on M1 muscarinic receptor, the Emax is below 25% and the “M1 Activity” value is given as “+ (activity was measured to be greater than 5.0 μM)”. Also, at M2 muscarinic receptor, the Emax is below 25% and the “M2 Activity” value is recorded as “+ (activity was measured to be greater than 5.0 μM)”. Moreover, on M3 muscarinic receptor, the Emax was below 25% and the “M3 Activity” value is on record as “+ (activity was measured to be greater than 5.0 μM)”. Besides, on M4 muscarinic receptor, the Emax lay within 25 to 100% and the “M4 Activity” value is listed as “++ (activity was measured to be from 1.0 μM to 5.0 μM)”.

Take `CCON=C1CCC(N2CCC(c3cc(Cl)ccc3OC)CC2)CC1` (stereo not drawn) [Compound 417, 4-(4-(5-chloro-2-methoxyphenyl)piperidin-1-yl)cyclohexanone O-ethyl oxime]: on M1 muscarinic receptor, the Emax is 25 to 100% and the “M1 Activity” value is on record as “+++ (activity was measured to be less than 1.0 μM)”. For the same molecule, at M2 muscarinic receptor, the Emax is 25 to 100% and the “M2 Activity” value was “+++ (activity was measured to be less than 1.0 μM)”. Further, at M3 muscarinic receptor, the Emax lay in the range of 25 to 100% and the “M3 Activity” value is reported as “+ (activity was measured to be greater than 5.0 μM)”. Moreover, at M4 muscarinic receptor, the Emax is above 100% and the “M4 Activity” value is reported as “+++ (activity was measured to be less than 1.0 μM)”.
